The source of these data is patent publication US5736545A, “Azolyl piperazinyl phenyl oxazolidinone antimicrobials” (Pharmacia & Upjohn Company, priority 1997, dated 1998).

In test [1] the test system is S. aureus UC ® 9213. The test can be described thus: In vitro MIC by agar dilution (NCCLS), Gram-positive bacteria: S. aureus. The class given is cell-based, Staphylococcus aureus. The conditions noted are these: for MIC: Staphylococcus aureus. The source says:
The oxazolidinone antibacterial agents of this invention have useful activity against a variety of organisms. The in vitro activity of compounds of this invention can be assessed by standard testing procedures such as the determination of minimum inhibitory concentration (MIC) by agar dilution as described in "Methods for Dilution Antimicrobial Susceptibility Tests for Bacteria That Grow Aerobically" (MFT) published January 1983 by the National Committee for Clinical Laboratory Standards, 771 East Lancaster Avenue, Villanova, Pa. 19084, USA. The activity of selected compounds of this invention against Staphylococcus aureus and Streptococcus pneumoniae are shown in Table 1.
^a Minimum inhibitory concentration: lowest concentration of drug
(μg/mL) that inhibits visible growth of the organism.

The test system of test [2] is E. Faecalis UC ® 9217. The test is described as follows: In vitro MIC by agar dilution (NCCLS), Gram-positive bacteria: E. faecalis. It counts as cell-based. To be noted: for MIC: Enterococcus faecalis.
Where [3] appears, read: UC9213, S. aureus UC 9213, agar dilution, read-out: MIC (minimum inhibitory concentration: lowest concentration of drug that inhibits visible growth of the organism).
The mark [4] stands for this setting: UC9217, E. Faecalis UC 9217, agar dilution, read-out: MIC (minimum inhibitory concentration: lowest concentration of drug that inhibits visible growth of the organism).

In brackets after ≈: the same amount, converted by molar mass. Like-named read-outs stand apart in the source and are kept apart here.

As for `CC(=O)NC[C@H]1CN(c2ccc(N3CCN(c4nc5ccccc5s4)CC3)c(F)c2)C(=O)O1` [Example 1, (S)--N--[[3-[4-[4-(2-Benzothiazolyl)-1-piperazinyl]-3-fluorophenyl]-2-oxo-5-oxazolidinyl]methyl]acetamide], the results for the MIC in test [1] (setting [3]) and in test [2] (setting [4]) were 4 µg/mL (≈ 8.52 µM) and 2 µg/mL (≈ 4.26 µM), respectively.
The corresponding values for `CC(=O)NC[C@H]1CN(c2ccc(N3CCN(c4ncc([N+](=O)[O-])s4)CC3)c(F)c2)C(=O)O1` [Example 2, (S)--N--[[3-[3-Fluoro-4-[4-(5-nitrothiazol-2-yl)-1-piperazinyl]phenyl]-2-oxo-5-oxazolidinyl]methyl]acetamide] are 2 µg/mL (≈ 4.31 µM) and 2 µg/mL (≈ 4.31 µM).
On the same counts, the results for `CC(=O)NC[C@H]1CN(c2ccc(N3CCNCC3)c(F)c2)C(=O)O1` [XLII, reference compound] are over 64 µg/mL and 32 µg/mL (≈ 95.1 µM).
The corresponding values for `CC(=O)NC[C@H]1CN(c2ccc(N3CCN(c4nc5ccc([N+](=O)[O-])cc5s4)CC3)c(F)c2)C(=O)O1` [Example 6, (S)--N--[[3-[3-Fluoro-4-[4-(6-nitrobenzothiazol-2-yl)-1-piperazinyl]phenyl]-2-oxo-5-oxazolidinyl]methyl]acetamide] are 0.5 µg/mL (≈ 0.972 µM) and 0.5 µg/mL (≈ 0.972 µM).
On to `CC(=O)NC[C@H]1CN(c2ccc(N3CCN(c4nnc(C)s4)CC3)c(F)c2)C(=O)O1` [Example 17, (S)--N--[[3-[3-Fluoro-4-[4-(5-methyl-1,3,4-thiadiazol-2-yl)-1-piperazinyl]phenyl]-2-oxo-5-oxazolidinyl]methyl]acetamide], for which the MIC in test [1] (setting [3]) came out at 0.5 µg/mL (≈ 1.15 µM); in test [2] (setting [4]), 1 µg/mL (≈ 2.3 µM).
On to `CC(=O)NC[C@H]1CN(c2ccc(N3CCN(C4=NCCS4)CC3)c(F)c2)C(=O)O1` [Example 11, (S)--N--[[3-[4-[4-(4,5-Dihydro-2-thiazolyl)-1-piperazinyl]-3-fluorophenyl]-2-oxo-5-oxazolidinyl]methyl]acetamide], for which the values for the MIC in test [1] (setting [3]) and in test [2] (setting [4]) were 2 µg/mL (≈ 4.74 µM) and 1 µg/mL (≈ 2.37 µM), respectively.
For `CC(=O)NC[C@H]1CN(c2ccc(N3CCN(c4nnc(C(F)(F)F)s4)CC3)c(F)c2)C(=O)O1` [Example 20, (S)--N--[[3-[3-Fluoro-4-[4-(5-trifluoromethyl-1,3,4-thiadiazol-2-yl)-1-piperazinyl]phenyl]-2-oxo-5-oxazolidinyl]methyl]acetamide], the values for the MIC in test [1] (setting [3]) and in test [2] (setting [4]) were 4 µg/mL (≈ 8.19 µM) and 2 µg/mL (≈ 4.09 µM), respectively.
On the same counts, the results for `CC(=O)NC[C@H]1CN(c2ccc(N3CCN(c4nncs4)CC3)c(F)c2)C(=O)O1` [Example 16, (S)--N--[[3-[3-Fluoro-4-[4-(1,3,4-thiadiazol-2-yl)-1-piperazinyl]phenyl]-2-oxo-5-oxazolidinyl]mehtyl]acetamide] are 1 µg/mL (≈ 2.38 µM) and 1 µg/mL (≈ 2.38 µM).
For the molecule `CC(=O)NC[C@H]1CN(c2ccc(N3CCN(c4nnc(N)s4)CC3)c(F)c2)C(=O)O1` [Example 18], the MIC in test [1] (setting [3]) and in test [2] (setting [4]) was 2 µg/mL (≈ 4.59 µM) throughout.
`CC(=O)NC[C@H]1CN(c2ccc(N3CCN(c4nc5cccc(F)c5o4)CC3)c(F)c2)C(=O)O1` [Example 9, (S)--N--[[3-[3-Fluoro-4-[4-(7-fluorobenzoxazol-2-yl)-1-piperazinyl]phenyl]-2-oxo-5-oxazolidinyl]methyl]acetamide]: the MIC in test [1] (setting [3]) and in test [2] (setting [4]) was 1 µg/mL (≈ 2.12 µM) throughout.
With “(S)--N--[[3-[4-[3-Fluoro-4-[(methyl-5-tetrazolyl)-1-piperazinyl]phenyl]-2-oxo-5-oxazolidinyl]methyl]acetamide [Example 14]”, the “MIC (minimum inhibitory concentration: lowest concentration of drug that inhibits visible growth of the organism)” value in test [1] (S. aureus UC 9213, agar dilution) was 4 µg/mL; in test [2] (E. Faecalis UC 9217, agar dilution) it was 2 µg/mL.
As for `CC(=O)NC[C@H]1CN(c2ccc(N3CCN(c4nc5cc([N+](=O)[O-])ccc5o4)CC3)c(F)c2)C(=O)O1` [Example 4, (S)--N--[[3-[3-Fluoro-4-[4-(5-nitrobenzoxazol-2-yl)-1-piperazinyl]phenyl]-2-oxo-5-oxazolidinyl]methyl]acetamide], the MIC in test [1] (setting [3]) and in test [2] (setting [4]) was 1 µg/mL (≈ 2.01 µM) throughout.
Turning to `CC(=O)NC[C@H]1CN(c2ccc(N3CCN(c4nc5cc(F)ccc5o4)CC3)c(F)c2)C(=O)O1` [Example 7, (S)--N--[[3-[3-Fluoro-4-[4-(5-fluorobenzoxazol-2-yl)-1-piperazinyl]phenyl]-2-oxo-5-oxazolidinyl]methyl]acetamide], the MIC in test [1] (setting [3]) and in test [2] (setting [4]) was 4 µg/mL (≈ 8.48 µM) throughout.
With `CC(=O)NC[C@H]1CN(c2ccc(N3CCN(c4nc5ccccc5o4)CC3)c(F)c2)C(=O)O1` [Example 3, (S)--N--[[3-[4-[4-(2-Benzoxazolyl)-1-piperazinyl]-3-fluorophenyl]-2-oxo-5-oxazolidinyl]methyl]acetamide], the MIC in test [1] (setting [3]) and in test [2] (setting [4]) was 2 µg/mL (≈ 4.41 µM) each time.
Take `CC(=O)NC[C@H]1CN(c2ccc(N3CCN(C4=NCCO4)CC3)c(F)c2)C(=O)O1` [Example 12, (S)--N--[[3-[4-[4-(4,5-Dihydro-2-oxazolyl)-1-piperazinyl]-3-fluorophenyl]-2-oxo-5-oxazolidinyl]methyl]acetamide]: the MIC was found to be 32 µg/mL (≈ 78.9 µM) in test [1] (setting [3]) and 4 µg/mL (≈ 9.87 µM) in test [2] (setting [4]).
The corresponding values for `CC(=O)NC[C@H]1CN(c2ccc(N3CCN(c4nnnn4-c4ccccc4)CC3)c(F)c2)C(=O)O1` [Example 13] are 4 µg/mL (≈ 8.32 µM) and 4 µg/mL (≈ 8.32 µM).
`CC(=O)NC[C@H]1CN(c2ccc(N3CCN(c4n[nH]c(=O)s4)CC3)c(F)c2)C(=O)O1` [Example 24, (S)--N--[[3-[3-Fluoro-4-[4-(5-oxo-1,3,4-thiadiazol-2-yl)-1-piperazinyl]phenyl]-2-oxo-5-oxazolidinyl]methyl]acetamide]: the MIC in test [1] (setting [3]) and in test [2] (setting [4]) was 1 µg/mL (≈ 2.29 µM) in each case.
`CC(=O)NC[C@H]1CN(c2ccc(N3CCN(c4nccs4)CC3)c(F)c2)C(=O)O1` [Example 5, (S)--N--[[3-[3-Fluoro-4-[4-(2-thiazolyl)-1-piperazinyl]phenyl]-2-oxo-5-oxazolidinyl]methyl]acetamide]: the MIC is 2 µg/mL (≈ 4.77 µM) in test [1] (setting [3]) and 1 µg/mL (≈ 2.38 µM) in test [2] (setting [4]).
On the same counts, the results for `CC(=O)NC[C@H]1CN(c2ccc(N3CCN(c4nnc(C)o4)CC3)c(F)c2)C(=O)O1` [Example 27, (S)--N--[[3-[3-Fluoro-4-[4-(5-methyl-1,3,4-oxadiazol-2-yl)-1-piperazinyl]phenyl]-2-oxo-5-oxazolidinyl]methyl]acetamide] are 4 µg/mL (≈ 9.56 µM) and 4 µg/mL (≈ 9.56 µM).
The corresponding values for `CC(=O)NC[C@H]1CN(c2ccc(N3CCN(c4nc(C)ns4)CC3)c(F)c2)C(=O)O1` [Example 25] are 2 µg/mL (≈ 4.6 µM) and 1 µg/mL (≈ 2.3 µM).
On the same counts, the results for `CCOC(=O)c1nnc(N2CCN(c3ccc(N4C[C@H](CNC(C)=O)OC4=O)cc3F)CC2)s1` [Example 19, (S)--N--[[3-[4-[4-(5-Ethoxycarbonyl-1,3,4-thiadiazol-2-yl)-3-fluoro-1-piperazinyl]phenyl]-2-oxo-5-oxazolidinyl]methyl]acetamide] are 4 µg/mL (≈ 8.12 µM) and 2 µg/mL (≈ 4.06 µM).
In the case of `CC(=O)NC[C@H]1CN(c2ccc(N3CCN(c4nc5ccc(F)cc5o4)CC3)c(F)c2)C(=O)O1` [Example 8, (S)--N--[[3-[3-Fluoro-4-[4-(6-fluorobenzoxazol-2-yl)-1-piperazinyl]phenyl]-2-oxo-5-oxazolidinyl]methyl]acetamide], the results for the MIC in test [1] (setting [3]) and in test [2] (setting [4]) were 2 µg/mL (≈ 4.24 µM) and 1 µg/mL (≈ 2.12 µM), respectively.
With `CC(=O)NC[C@H]1CN(c2ccc(N3CCN(c4nc(=O)n(-c5ccccc5)s4)CC3)c(F)c2)C(=O)O1` [Example 26, (S)--N--[[3-[3-Fluoro-4-[4-(2-phenyl-3-oxo-1,2,4-thiadiazol-5-yl)-1-piperazinyl]phenyl]-2-oxo-5-oxazolidinyl]methyl]acetamide], the MIC worked out at 8 µg/mL (≈ 15.6 µM) in test [1] (setting [3]) and 4 µg/mL (≈ 7.8 µM) in test [2] (setting [4]).
As for `CC(=O)NC[C@H]1CN(c2ccc(N3CCN(C4=NC(=O)CS4)CC3)c(F)c2)C(=O)O1` [Example 15], the MIC is 2 µg/mL (≈ 4.59 µM) in test [1] (setting [3]) and 1 µg/mL (≈ 2.3 µM) in test [2] (setting [4]).
On to `CN[C@H](CC(C)C)C(=O)N[C@H]1C(=O)N[C@@H](CC(N)=O)C(=O)N[C@H]2C(=O)N[C@H]3C(=O)N[C@H](C(=O)N[C@H](C(=O)O)c4cc(O)cc(O)c4-c4cc3ccc4O)[C@H](O)c3ccc(c(Cl)c3)Oc3cc2cc(c3O[C@@H]2O[C@H](CO)[C@@H](O)[C@H](O)[C@H]2O[C@H]2C[C@](C)(N)[C@H](O)[C@H](C)O2)Oc2ccc(cc2Cl)[C@H]1O` [Vancomycin, reference compound], for which the MIC was found to be 1 µg/mL (≈ 0.69 µM) in test [1] (UC9213, read-out: MIC (minimum inhibitory concentration: lowest concentration of drug that inhibits visible growth of the organism)) and 4 µg/mL (≈ 2.76 µM) in test [2] (UC9217, read-out: MIC (minimum inhibitory concentration: lowest concentration of drug that inhibits visible growth of the organism)).
Regarding `CC(=O)NC[C@H]1CN(c2ccc(N3CCN(c4nc5ccc(F)c(F)c5o4)CC3)c(F)c2)C(=O)O1` [Example 10, (S)--N--[[3-[3-Fluoro-4-[4-(6,7-difluorobenzoxazol-2-yl)-1-piperazinyl]phenyl]-2-oxo-5-oxazolidinyl]methyl]acetamide], the MIC in test [1] (setting [3]) and in test [2] (setting [4]) was 2 µg/mL (≈ 4.09 µM) in each case.
